Assay results from article PMC11766273, “Design, Synthesis, Anticancer Screening, and Mechanistic Study of Spiro-N-(4-sulfamoyl-phenyl)-1,3,4-thiadiazole-2-carboxamide Derivatives” (International Journal of Molecular Sciences, 2025).

What was measured:
hCA IX = hCA IX (Homo sapiens, UniProt Q16790); design: method as in PMID 35671645, PMID 37577088, PMID 30978604, PMID 37776683; conditions: printed in Figure 1 for reported compounds; cited from earlier work
hCA XII = hCA XII (Homo sapiens, UniProt O43570); design: method as in PMID 35671645, PMID 37577088, PMID 30978604, PMID 37776683; conditions: printed in Figure 1 for reported compounds; cited from earlier work
renal RXF393 cell line = assay: Apoptosis assay (Annexin V-FITC/PI); assay type: cell-based, human; conditions: RXF393 treated at IC50
[1] = system: colon HT29 cancer cell line; assay: MTT cell viability assay
Protocol: (§1) The growth percentage was calculated at different drug concentration
levels and at different times.
(§2) and WI 38 cell lines was determined utilizing established MTT test procedures.
(§3) All cell lines utilized were acquired from the Vacsera Cell Culture Library, Tissue
(§4) Culture Unit, Cairo, Egypt, with ATCC provenance.
(§5) concentrations that inhibited 50% of cell growth were tested three times, and the mean
(§6) was computed. Cells were grown in DMEM (Invitrogen/Life Technologies) augmented
(§7) with 10% FBS (Hyclone), 10 mg/ml of insulin (Sigma), and 1% penicillin-streptomycin.
(§8) Seed cells (density 1.2–1.8×10,000 cells/well) in 100 mL of complete growth medium and
(§9) 100 mL of the tested chemical per well in a 96-well plate for 24 h before the MTT testing.
(§10) In a standard experiment, 100 mL of serially diluted sterile testing substances were
(§11) introduced to achieve final concentrations ranging from 0.01 to 100 mM, utilizing
(§12) growth media as a negative control. Following 24 h of culture incubation, the
(§13) supernatants were discarded. The LOX IMVI, HT29, and RXF393 cell lines were
(§14) subjected to trypsinization and rinsed with calcium/magnesium-free PBS (pH 7.2). We
(§15) transferred cultures from the incubator to a laminar flow hood or sterile workspace.
(§16) Each test must incorporate a blank, providing complete media
(§17) balanced salt solution devoid of phenol red and serum. Incorporate reconstituted MTT
(§18) at a volume constituting 10% of the culture medium—re-incubate cultures for 2 to 4 h,
(§19) contingent upon cell type and optimal cell density. Upon completion of the incubation
(§20) period, the cultures from the incubator are extracted, and the resultant formazan
(§21) crystals are dissolved by adding an equivalent volume of MTT Solubilization Solution
Absorbance was spectrophotometrically
(§22) measured at a wavelength of 570 nm. Quantify the background absorbance of multi-
(§23) well plates at 690 nm and deduct this value from the data at 450 nm. Data from all
(§24) experiments were documented, and the viability percentage of cells was computed.

RXF393 cells = assay: Cell cycle analysis (propidium iodide flow cytometry); conditions: RXF393 treated at IC50
Protocol: The impact of the target compound on cell cycle progression in the RXF393 cancer cell line was evaluated against doxorubicin as a positive control and untreated RXF393 as a negative control, utilizing a flow cytometry assay.
was assessed utilizing the Propidium Iodide Flow Cytometry Kit to quantify DNA
content following established protocols.
RXF393 cells were treated with the IC50 concentration of the target compound

[2] = system: melanoma LOX IMVI cancer cell line; assay: MTT cell viability assay; conditions: for % viability: LOXIMVI
Protocol: as §1
levels and at different times.
as §2, §3, §4, §5, §6, §7, §8, §9, §10, §11, §12, §13, §14, §15, §16, §17, §18, §19, §20, §21
Absorbance was spectrophotometrically
as §22, §23, §24

[3] = system: renal RXF393 cancer cell line; assay: MTT cell viability assay; conditions: for % viability: rxf393
Protocol: as §1
levels and at different times.
as §2, §3, §4, §5, §6, §7, §8, §9, §10, §11, §12, §13, §14, §15, §16, §17, §18, §19, §20, §21
Absorbance was spectrophotometrically
as §22, §23, §24

in vitro = conditions: human, WI 38 normal cells
Protocol: as §1
levels and at different times.
as §2, §3, §4, §5, §6, §7, §8, §9, §10, §11, §12, §13, §14, §15, §16, §17, §18, §19, §20, §21
Absorbance was spectrophotometrically
as §22, §23, §24

hCA XII, sequence (O43570 25-354): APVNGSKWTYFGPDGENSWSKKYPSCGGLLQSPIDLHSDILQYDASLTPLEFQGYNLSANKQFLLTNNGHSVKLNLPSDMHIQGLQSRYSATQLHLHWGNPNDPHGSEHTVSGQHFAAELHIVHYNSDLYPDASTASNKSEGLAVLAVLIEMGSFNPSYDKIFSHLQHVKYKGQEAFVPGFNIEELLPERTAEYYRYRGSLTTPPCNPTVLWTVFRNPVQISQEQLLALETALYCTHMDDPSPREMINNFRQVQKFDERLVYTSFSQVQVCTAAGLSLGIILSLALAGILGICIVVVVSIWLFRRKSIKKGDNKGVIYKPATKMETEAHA

For NS(=O)(=O)c1ccc(NC(=O)Nc2ncc(-c3ccc(F)cc3)s2)cc1 [Compound I], the Ki (hCA IX) is listed as 0.0136 µM and the Ki (hCA XII) is listed as 0.0276 µM.
For COc1cccc2c1C(=O)c1c(O)c3c(c(O)c1C2=O)C[C@@](O)(C(=O)CO)C[C@@H]3O[C@H]1C[C@H](N)[C@H](O)[C@H](C)O1 [Doxorubicin, doxorubicin, reference compound], the “Apoptosis Late” value (renal RXF393 cell line; DMSO control 0.18) was 17.36%, the “Apoptosis Early” value (renal RXF393 cell line; DMSO control 0.42) was 12.64% and the Necrosis (renal RXF393 cell line; DMSO control 1.16) was 9.02%. The IC50 ([1]; HT29) was 13.5 ± 0.71 µM, the “% viability” value ([1]; HT-29, 0.4uM) was 79.36% and the “% viability” value ([1]; HT-29, 1.6uM) was 68.43%. For the same compound, the “% viability” value ([1]; HT-29, 6.3uM) was 57.377%, the “% viability” value ([1]; HT-29, 25uM) was 45.5981% and the “% viability” value ([1]; HT-29, 100uM) was 31.937%. For the same compound, the “DNA Content %G2/M” value (RXF393 cells; DMSO control 19.51) was 11.01%, the “DNA Content %S” value (RXF393 cells; DMSO control 28.54) was 16.81% and the “DNA Content %G0-G1” value (RXF393 cells; DMSO control 51.95) was 72.18%. The IC50 ([2]; LOX IMVI) was 6.08 ± 0.32 µM, the “% viability” value ([2]; 0.4uM) was 69.98% and the “% viability” value ([2]; 1.6uM) was 58.61%. The “% viability” value ([2]; 6.3uM) was 49.41%, the “% viability” value ([2]; 25uM) was 41.5165% and the “% viability” value ([2]; 100uM) was 29.521%. For the same compound, the IC50 ([3]; RXF393, MTT) was 13.5 ± 0.82 µM, the “Cytotoxicity IC50 SD” value ([3]; RXF 393, Table S2) was 13.54 ± 0.82 µg/mL and the “% viability” value ([3]; 0.4ug, MTT) was 78.52%. The “% viability” value ([3]; 1.6ug, MTT) was 69.673%, the “% viability” value ([3]; 6.25ug, MTT) was 54.451% and the “% viability” value ([3]; 25ug, MTT) was 43.883%. For the same compound, the “% viability” value ([3]; 100ug, MTT) was 34.98%, the IC50 at 24 h (in vitro) was 18.1 ± 0.59 µM and the viability at 24 h, 0.4 µM (in vitro) was 74.5%. It also gave a viability at 24 h, 1.6 µM (in vitro) of 63.2%, a viability at 24 h, 6.3 µM (in vitro) of 52.4% and a viability at 24 h, 25 µM (in vitro) of 46.6%. The viability at 24 h, 100 µM (in vitro) was 38.4%.
